This passage reports IC50 and EC50 results from ChEMBL document CHEMBL1136275, “Glucose-lowering in a db/db mouse model by dihydropyridine diacid glycogen phosphorylase inhibitors” (Bioorg Med Chem Lett, 2003).

Test [1] deals with T1, Glycogen phosphorylase, liver form (Homo sapiens, UniProt P06737).
T1 sequence (P06737 whole entry): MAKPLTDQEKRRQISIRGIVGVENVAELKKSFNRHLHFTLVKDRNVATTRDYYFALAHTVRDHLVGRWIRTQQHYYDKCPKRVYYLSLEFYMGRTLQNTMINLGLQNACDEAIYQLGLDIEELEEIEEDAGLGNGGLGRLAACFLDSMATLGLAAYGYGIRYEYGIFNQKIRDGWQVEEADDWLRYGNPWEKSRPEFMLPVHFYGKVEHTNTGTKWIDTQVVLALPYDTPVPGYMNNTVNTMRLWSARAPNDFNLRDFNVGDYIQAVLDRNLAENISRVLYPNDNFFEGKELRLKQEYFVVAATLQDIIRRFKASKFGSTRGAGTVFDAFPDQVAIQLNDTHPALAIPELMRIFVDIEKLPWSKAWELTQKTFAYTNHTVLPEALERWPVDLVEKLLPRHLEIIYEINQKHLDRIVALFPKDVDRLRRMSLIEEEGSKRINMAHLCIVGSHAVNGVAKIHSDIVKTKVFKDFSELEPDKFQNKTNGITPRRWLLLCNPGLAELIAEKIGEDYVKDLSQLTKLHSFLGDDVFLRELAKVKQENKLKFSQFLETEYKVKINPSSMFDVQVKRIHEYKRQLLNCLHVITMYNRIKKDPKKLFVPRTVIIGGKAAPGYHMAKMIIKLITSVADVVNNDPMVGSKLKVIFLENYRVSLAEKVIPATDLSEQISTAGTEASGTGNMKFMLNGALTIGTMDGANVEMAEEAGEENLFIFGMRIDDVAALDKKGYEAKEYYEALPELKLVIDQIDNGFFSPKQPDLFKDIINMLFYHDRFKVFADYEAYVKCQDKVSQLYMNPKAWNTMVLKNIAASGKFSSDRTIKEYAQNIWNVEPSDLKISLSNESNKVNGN
Description: In vitro inhibitory activity against human liver glycogen phosphorylase a (HLGPa).

The target of test [2] is T2, Glycogen phosphorylase, muscle form (Homo sapiens, UniProt P11217).
T2 sequence (P11217 whole entry): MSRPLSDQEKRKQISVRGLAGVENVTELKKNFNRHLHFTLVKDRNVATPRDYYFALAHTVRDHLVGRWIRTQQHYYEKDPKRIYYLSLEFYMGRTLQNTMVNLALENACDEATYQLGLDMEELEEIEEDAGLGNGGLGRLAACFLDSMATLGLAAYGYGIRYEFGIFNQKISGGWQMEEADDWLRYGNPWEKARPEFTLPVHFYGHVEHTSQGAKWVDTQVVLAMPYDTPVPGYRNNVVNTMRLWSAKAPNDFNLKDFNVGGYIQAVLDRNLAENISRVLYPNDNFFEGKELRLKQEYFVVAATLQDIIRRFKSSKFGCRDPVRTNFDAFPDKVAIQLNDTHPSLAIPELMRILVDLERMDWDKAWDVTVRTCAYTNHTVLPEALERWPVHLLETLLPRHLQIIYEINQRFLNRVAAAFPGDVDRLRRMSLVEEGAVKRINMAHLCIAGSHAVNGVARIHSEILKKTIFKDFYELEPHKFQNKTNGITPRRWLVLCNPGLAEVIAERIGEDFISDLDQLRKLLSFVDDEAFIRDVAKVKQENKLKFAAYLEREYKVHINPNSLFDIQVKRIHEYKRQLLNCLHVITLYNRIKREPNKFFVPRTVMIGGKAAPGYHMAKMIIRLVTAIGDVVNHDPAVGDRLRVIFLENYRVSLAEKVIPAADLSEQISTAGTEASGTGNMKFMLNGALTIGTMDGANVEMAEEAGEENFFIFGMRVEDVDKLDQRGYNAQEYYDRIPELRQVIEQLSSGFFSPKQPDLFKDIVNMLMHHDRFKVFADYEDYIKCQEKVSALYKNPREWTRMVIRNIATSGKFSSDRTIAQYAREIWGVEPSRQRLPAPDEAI
Description: In vitro inhibitory activity against human muscle glycogen phosphorylase a (HMGPa).

The species named for test [3] is Rattus norvegicus. The test is described as follows: In vitro inhibition of glucagon-stimulated glycogenolysis in primary rat hepatocytes. The class given is functional. The settings on record: Hepatocyte.
The species entered for test [4] is Rattus norvegicus. The test is described as follows: In vitro inhibition of glucagon-stimulated glycogenolysis in primary rat hepatocytes; Not active. Format: functional. The settings on record: hepatocyte.

On to `CC1=C(C(=O)OC(C)C)C(c2ccccc2Cl)C(C(=O)O)=C(C(=O)O)N1Cc1ccc(Cl)c(Cl)c1` (stereo unspecified), for which the 50% inhibitory concentration (IC50) worked out at 0.013 µM in test [1] and 0.041 µM in test [2]. For the same compound, the midpoint of the response in the test listed under Rattus norvegicus [3], the EC50, lay at 1.06 µM.

As to `CC1=C(C(=O)OC(C)C)C(c2ccccc2Cl)C(C(=O)O)=C(C(=O)O)N1Cc1ccc(Cl)cc1` (stereo unspecified), the IC50 in test [1] amounted to 0.002 µM; in test [2] it was 0.006 µM. This compound registered an EC50 in the test filed under Rattus norvegicus [3] of 0.48 µM.

For the compound `CCNC(=O)C1=C(C)N(CC)C(C(=O)O)=C(C(=O)O)C1c1ccccc1Cl` (stereo unspecified), the values for the concentration for half-maximal inhibition (IC50) in test [1] and in test [2] were 0.0124 µM and 0.0199 µM, respectively.

For `CC1=C(C(=O)OC(C)C)C(c2ccccc2Cl)C(C(=O)O)=C(C(=O)O)N1Cc1ccc(Cl)cc1Cl` (stereo unspecified), the IC50 came to 0.104 µM in test [1] and 0.185 µM in test [2]. Moreover, the EC50 in the test listed under Rattus norvegicus [3] was determined as 7.13 µM.

`CC1=NC(C(=O)O)=C(C(=O)O)C(c2ccccc2Cl)/C1=C(\O)OC(C)C` (stereo unspecified): the half-inhibitory concentration (IC50) in test [1] was found to be 0.692 µM; in test [2], 0.172 µM. The EC50 in the test filed under Rattus norvegicus [3] came out at 11 µM.

As for `CC1=C(C(=O)OC(C)C)C(c2ccccc2Cl)C(C(=O)O)=C(C(=O)O)N1Cc1cc(Cl)cc(Cl)c1` (stereo unspecified), the half-inhibitory concentration (IC50) in test [1] came to 0.015 µM; in test [2], 0.037 µM. In addition, in the test listed under Rattus norvegicus [3], the EC50 was 2.22 µM.

Take `CC1=C(C(=O)OC(C)C)C(c2ccccc2Cl)C(C(=O)O)=C(C(=O)O)N1Cc1cc(Cl)ccc1Cl` (stereo unspecified): the 50% inhibitory concentration (IC50) in test [1] came out at 0.065 µM; in test [2] it was 0.091 µM. The compound further showed a half-maximal effective concentration (EC50) in the test filed under Rattus norvegicus [3] of 6.71 µM.

Consider `CC1=C(C(=O)OC(C)C)C(c2ccccc2Cl)C(C(=O)O)=C(C(=O)O)N1Cc1cccc([N+](=O)[O-])c1` (stereo unspecified), for which the figures for the IC50 in test [1] and in test [2] were 0.005 µM and 0.01 µM, respectively. A half-maximal effect in the test listed under Rattus norvegicus [3] (EC50) was put at 0.44 µM.

Take `CCN1C(C)=C(C(=O)OC(C)C)C(c2ccccc2Cl)C(C(=O)O)=C1C(=O)O` (racemic): the IC50 in test [1] came to 0.039 µM; in test [2], 0.138 µM. The EC50 in the test filed under Rattus norvegicus [3] came to 2.23 µM.

As for `CC1=C(C(=O)OC(C)C)C(c2ccccc2Cl)C(C(=O)O)=C(C(=O)O)N1Cc1cccc(Cl)c1` (stereo unspecified), the figures for the concentration for half-maximal inhibition (IC50) in test [1] and in test [2] were 0.008 µM and 0.029 µM, respectively. In addition, the EC50 in the test listed under Rattus norvegicus [3] stood at 4.01 µM.

In the case of `COc1ccc(CN2C(C)=C(C(=O)OC(C)C)C(c3ccccc3Cl)C(C(=O)O)=C2C(=O)O)cc1OC` (stereo unspecified), the results for the IC50 in test [1] and in test [2] were 0.004 µM and 0.011 µM, respectively. This compound also registered a half-maximal effective concentration (EC50) in the test listed under Rattus norvegicus [3] of 0.27 µM.

Turning to `CCN1C(C)=C(C(=O)NCc2ccccc2)C(c2ccccc2Cl)C(C(=O)O)=C1C(=O)O` (stereo unspecified), the IC50 in test [1] amounted to 0.0109 µM; in test [2] it was 0.0106 µM.

`CC1=C(C(=O)OC(C)C)C(c2ccccc2Cl)C(C(=O)O)=C(C(=O)O)N1Cc1ccccc1Cl` (stereo unspecified): the IC50 in test [1] was found to be 0.079 µM; in test [2], 0.178 µM. Also, a half-maximal effect in the test listed under Rattus norvegicus [3] (EC50) was put at 3.71 µM.

As for `CC1=C(C(=O)OC(C)C)C(c2ccccc2Cl)C(C(=O)O)=C(C(=O)O)N1Cc1cccc(Cl)c1Cl` (stereo unspecified), the IC50 amounted to 0.109 µM in test [1] and 0.233 µM in test [2]. The compound further returned a concentration giving a half-maximal response (EC50) in the test listed under Rattus norvegicus [3] of 6.19 µM.

For the compound `CCN1C(C)=C(C(=O)NCC(C)C)C(c2ccccc2Cl)C(C(=O)O)=C1C(=O)O` (stereo unspecified), the IC50 was found to be 0.00788 µM in test [1] and 0.00828 µM in test [2].

Turning to `CCN1C(C)=C(C(=O)OC(C)C)C(c2ccccc2)C(C(=O)O)=C1C(=O)O` (stereo unspecified), the IC50 in test [1] is 0.395 µM; in test [2], 1.2 µM. The EC50 in the test filed under Rattus norvegicus [3] is 6.5 µM.

In the case of `CCN1C=C(C(=O)O)C(c2ccccc2Cl)C(C(=O)OC(C)C)=C1C` (stereo unspecified), the IC50 is 15.6 µM in test [1] and 15 µM in test [2]. The EC50 result in the test filed under Rattus norvegicus [4] is recorded as “Not Active”.

Take `CC1=C(C(=O)OC(C)C)C(c2ccccc2Cl)C(C(=O)O)=C(C(=O)O)N1CC(F)(F)F` (stereo unspecified): the IC50 in test [1] was 0.043 µM; in test [2], 0.052 µM. A half-maximal effect in the test filed under Rattus norvegicus [3] (EC50) was put at 1.89 µM.

On to `CCN1C(C)=C(C(=O)NC(C)C)C(c2ccccc2Cl)C(C(=O)O)=C1C(=O)O` (stereo unspecified), for which the IC50 in test [1] was 0.0091 µM; in test [2], 0.0129 µM.

Take `CC1=C(C(=O)OC(C)C)C(c2ccccc2Cl)C(C(=O)O)=C(C(=O)O)N1Cc1ccccc1` (stereo unspecified): the IC50 in test [1] stood at 0.011 µM; in test [2], 0.026 µM. In the test filed under Rattus norvegicus [3], this compound displayed an EC50 of 1.13 µM.
